In ChEMBL document CHEMBL1121950, “Species- or isozyme-specific enzyme inhibitors. 9. Selective effects in inhibitions of rat pyruvate kinase isozymes by adenosine 5'-diphosphate derivatives” (J Med Chem, 1982):
“And” between values parts separate entries of the source, which are not always exact repeats. Identical values can stand only once.

Columns and labels:
[1] = biological target: T1, Pyruvate kinase PKLR (Rattus norvegicus, UniProt P12928); experiment: Inhibitory constant for inhibition of pyruvate kinase obtained from rat liver (PK-L) was determined using ADP as competitive inhibitor
[2] = biological target: T2, Pyruvate kinase PKM (Rattus norvegicus, UniProt P11980); experiment: Inhibition of rat muscle pyruvate kinase (PK-M)
[3] = biological target: T1, Pyruvate kinase PKLR; experiment: Inhibition of rat liver pyruvate kinase (PK-L); (relative inhibitory potency)
[4] = biological target: T1, Pyruvate kinase PKLR; experiment: Inhibition of rat kidney pyruvate kinase (PK-L)
[5] = biological target: T2, Pyruvate kinase PKM; experiment: Inhibition of rat muscle pyruvate kinase (PK-M) at 10 mM
[6] = biological target: T2, Pyruvate kinase PKM; experiment: Inhibition of rat muscle pyruvate kinase (PK-M) at 6.7 mM
[7] = biological target: T1, Pyruvate kinase PKLR; experiment: Inhibition of rat liver pyruvate kinase (PK-L) at 10.7 mM
[8] = biological target: T1, Pyruvate kinase PKLR; experiment: Inhibition of rat liver pyruvate kinase (PK-L) at 3.6 mM
[9] = biological target: T1, Pyruvate kinase PKLR; experiment: Inhibition of rat liver pyruvate kinase (PK-L) at 7.2 mM

T2 sequence (P11980 whole entry): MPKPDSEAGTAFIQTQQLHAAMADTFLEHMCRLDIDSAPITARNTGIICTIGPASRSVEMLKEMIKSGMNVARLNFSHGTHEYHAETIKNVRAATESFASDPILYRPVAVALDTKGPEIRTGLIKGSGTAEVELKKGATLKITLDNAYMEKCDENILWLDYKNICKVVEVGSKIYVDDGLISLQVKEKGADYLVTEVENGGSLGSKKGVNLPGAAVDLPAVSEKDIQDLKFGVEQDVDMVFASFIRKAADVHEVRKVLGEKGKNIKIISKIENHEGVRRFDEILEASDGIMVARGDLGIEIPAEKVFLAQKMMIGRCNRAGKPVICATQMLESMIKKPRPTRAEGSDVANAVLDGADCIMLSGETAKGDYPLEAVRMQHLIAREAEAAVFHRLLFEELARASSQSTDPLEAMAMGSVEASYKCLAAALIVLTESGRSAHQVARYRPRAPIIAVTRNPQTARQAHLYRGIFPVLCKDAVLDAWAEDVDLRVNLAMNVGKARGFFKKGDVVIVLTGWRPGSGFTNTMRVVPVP
T1 sequence (P12928 whole entry): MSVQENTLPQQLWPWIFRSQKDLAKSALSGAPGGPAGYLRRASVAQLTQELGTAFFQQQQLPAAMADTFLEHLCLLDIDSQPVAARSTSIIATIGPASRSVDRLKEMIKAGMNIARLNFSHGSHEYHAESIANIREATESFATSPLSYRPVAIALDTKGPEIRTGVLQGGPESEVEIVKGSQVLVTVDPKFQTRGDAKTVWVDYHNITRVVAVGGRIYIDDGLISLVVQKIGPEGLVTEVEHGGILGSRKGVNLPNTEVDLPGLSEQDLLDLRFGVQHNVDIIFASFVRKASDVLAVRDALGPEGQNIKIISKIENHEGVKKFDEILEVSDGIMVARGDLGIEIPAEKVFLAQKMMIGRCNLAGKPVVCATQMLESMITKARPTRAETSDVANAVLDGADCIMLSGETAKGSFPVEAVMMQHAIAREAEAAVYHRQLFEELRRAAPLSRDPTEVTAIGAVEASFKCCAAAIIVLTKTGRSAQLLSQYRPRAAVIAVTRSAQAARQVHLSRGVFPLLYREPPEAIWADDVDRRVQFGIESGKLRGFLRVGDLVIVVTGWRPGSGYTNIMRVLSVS

Structure (SMILES): CCNc1nc2c(N)ncnc2n1C1O[C@H](COP(=O)(O)OP(=O)(O)O)[C@@H](O)[C@H]1O (some centres not stated)
- Ki [1]: 2.2 mM and 3.9 mM
- Ki [2]: 0.5 mM and 0.87 mM

Structure (SMILES): CCCNc1nc2c(N)ncnc2n1C1O[C@H](COP(=O)(O)OP(=O)(O)O)[C@@H](O)[C@H]1O (some centres not stated)
- Ki [3]: 3.8 mM
- Ki [2]: 0.9 mM
- Ki [4]: 1.6 mM

Structure (SMILES): C[C@@H](OP(=O)(O)OP(=O)(O)O)[C@H]1OC(n2cnc3c(N)ncnc32)[C@H](O)[C@@H]1O (some centres not stated)
- Ki [5]: 4.5 mM
- Ki [6]: 7 mM
- Ki [7]: 5.4 mM

Structure (SMILES): CO[C@H]1[C@@H](O)[C@H](n2cnc3c(N)ncnc32)O[C@@H]1COP(=O)(O)OP(=O)(O)O
- Ki [1]: 32 mM
- Ki [2]: 9.3 mM

Structure (SMILES): CCSc1nc2c(N)ncnc2n1C1O[C@H](COP(=O)(O)OP(=O)(O)O)[C@@H](O)[C@H]1O (some centres not stated)
- Ki [1]: 8.4 mM
- Ki [2]: 3.7 mM

Structure (SMILES): CC1O[C@@H]2[C@H](O1)[C@@H](COP(=O)(O)OP(=O)(O)O)O[C@H]2n1cnc2c(N)ncnc21 (some centres not stated)
- Ki [8]: 4.6 mM
- Ki [2]: 1.6 mM
- Ki [9]: 2.2 mM

Structure (SMILES): CSc1nc2c(N)ncnc2n1C1O[C@H](COP(=O)(O)OP(=O)(O)O)[C@@H](O)[C@H]1O (some centres not stated)
- Ki [1]: 7.5 mM
- Ki [2]: 4.3 mM
